Data as given in patent US9656981B2, “Peripherally-acting cannabinoid receptor agonists for chronic pain” (The Regents of the University of California, priority 2012, dated 2017).
Read-outs that look alike come from different tables or passages of the source.

Legend:
[1] = system: sciatic nerve entrapment (SNE) neuropathy; test: SNE neuropathy, mechanical allodynia (von Frey); type: in vivo, rat; conditions: for effect on contralateral hindpaw withdrawal thresholds / effect on SNE-induced mechanical allodynia (ipsilateral hindpaw withdrawal thresholds) / SNE Neuropath Assay-% return to pre-drug (0.3 mg/kg) contralateal threshold at 2-3 h: 0.3 mg/kg; for effect on contralateral hindpaw withdrawal thresholds: hindpaw contralateral to SNE; for effect on SNE-induced mechanical allodynia (ipsilateral hindpaw withdrawal thresholds): systemic injection; for effect of pretreatment with the CBR blocker on the anti-allodynic effect of PrNMI: blocker before PrNMI 0.6 mg/kg, SNE rats
Experimental: The effectiveness of CBR agonists was tested for alleviating the painful symptoms of neuropathy induced by unilateral sciatic nerve entrapment (SNE)^131. The peripheral neuropathy induced by SNE is highly comparative to that of chronic constriction injury (CCI), which uses chromic gut suture materials instead of polyethylene cuffs^132. […] This increased excitability is at least in part attributable to injury-induced post-transcriptional transport of the voltage-gated sodium channel 1.8 (NaV1.8) mRNA, axonal accumulation of NaV1.8 mRNA, and its local protein translation leading to the increased NaV1.8 functional expression in injured nerve^136. The hyperexcitability and ectopic burst discharge of primary sensory neurons are widely considered to be the major contributors to pain symptomatology of peripheral neuropathy models. The SNE-induced mechanical allodynia effectively models the most common complaint of human neuropathy patients of dynamic mechanical allodynia. Behavioral measurements of mechanical sensitivity were conducted before and after induction of SNE as follows:
Rats are placed in a plastic-walled cage (10×20×13 cm) with a metal mesh floor (0.6×0.6 cm holes) and allowed to acclimate for 10 min. The amount of pressure (g) needed to evoke a hindpaw withdrawal response is measured 4 times on each paw separated by 30-s intervals using a von Frey-type digital meter (Model 1601C, IITC Instr.). Results of 4 tests/session are averaged for each paw.

CB1R = CB1R (Homo sapiens, UniProt P21554); test: CB1R radioligand displacement binding assay (CP55940 radioligand)
Experimental: Heterologous competition binding assays were performed to calculate receptor affinities. Unlabeled SR141716 or SR144528 were used as appropriate controls for non-specific binding (NSB) in the assay. Calculation of the equilibrium dissociation constant (Ki) was performed using the Cheng-Prusoff equation.

CB2R = CB2R (Homo sapiens, UniProt P34972); test: CB2R radioligand displacement binding assay (CP55940 radioligand)
Experimental: Detailed radioligand displacement assays (using the well-characterized CBR agonist […] as the radioligand) were conducted to determine the affinity (Ki) of the test compounds for CB1R and CB2R as has been previously described by our group^112,113. Heterologous competition binding assays were performed to calculate receptor affinities. Unlabeled SR141716 or SR144528 were used as appropriate controls for non-specific binding (NSB) in the assay. Calculation of the equilibrium dissociation constant (Ki) was performed using the Cheng-Prusoff equation.

human CB1R (hCB1R) = human CB1R (hCB1R) (Homo sapiens, UniProt P21554); test: human CB1R (hCB1R) calcium flux assay; type: cell-based; conditions: Table 1; read-out: Ca Flux % Emax
From the text: Compounds were first screened for: a) CB1R and CB2R binding, b) CB1R agonist activity using the human CB1R (hCB1R) calcium flux assay, and c) BBB permeability using the Madin-Darby canine kidney (MDCK-MDR1) cell line assay.
The calcium 3 dye assays were run according to manufacturer's specifications (http://www.moleculardevices.com/Products/Assay-Kits/GPCRs/FLIPR-Calcium.html) and as reported in our previous publications^112,113. Briefly, wells of black clear-bottom 96-well tissue culture-treated plates are seeded with 20,000 cells the afternoon before assay. The day of assay, the cells are incubated with the Ca^2+ indicator dye for 1 hr @ 37° C. For antagonist assays, the test compound is preincubated with the cells during the last 10 min of the dye incubation. Basal or unstimulated fluorescence intensity is recorded in the FlexStation @ 37° C. for 13 sec followed by the addition of test compound or CP 55,940 (depending on the assay endpoint). Fluorescence intensity is recorded for an additional 47 sec. The effect of test compound in each well is determined by subtracting the minimum from the maximum fluorescence during the 47-sec recording period.

rats [2] = test: Rotarod test of the tetrad; type: in vivo, rat
Experimental: Rats were tested for motor function and the ataxic effects of novel drugs as described previously^151-153. To determine drug effects on motor coordination, rats are trained 72 h before the test (3 sessions 24 h apart) to remain for at least 180 s on a rotarod revolving at an acceleration of 4-40 revs over 5 min). Rats are tested immediately before vehicle or drug injections and tested again at 2, 6, 24 and 48 hrs after injection. The time for which the rats are able to remain on the rotarod is recorded up to a cut-off of 5 min.

rats [3] = test: Catalepsy (ring) test of the tetrad; type: in vivo, rat
Experimental: Catalepsy (ring) test. Catalepsy was determined with a ring immobility test^154, modified for rats^139, 153. Rats are placed with their forepaws on a horizontal metal ring (12 cm diameter) at a height that allows their hindpaws to just touch the bench surface. Immobility is recorded as the time for the rat to move off the ring with a 100 s cutoff. Rats are tested before vehicle/drug injections and again at various times after injection.

Plasma stability assay = type: in vitro ADME; conditions: rat plasma, 10 μM
Experimental: Compounds are incubated at 10 μM in rat plasma at 37° C. A solution of each compound is prepared in ethanol at a concentration of 1 mM. A 2.5 μL volume of the 1 mM solution is added to 247.5 μL of rat plasma (male Sprague Dawley) in a glass test tube in a 37° C. water bath. Samples (50 μL) are removed at 0, 30 and 60 min and immediately extracted with 3 volumes (150 μL) of methanol. Samples are centrifuged (2500 rpm for 10 min at 4° C.) to pellet protein and supernatants transferred to LC/MS vials for analysis. Samples are stored at −80° C. prior to analysis.

rats [4] = test: Hypothermia test of the tetrad; type: in vivo, rat; conditions: 2-3 hr
Experimental: Rats are acclimated to a plastic restrainer apparatus (Model RTV-180 Braintree Scientific Inc.) on the day of testing by placing them in the restrainer twice for 5 min separated by 20 min. Baseline core temperature is taken before treatment, and the rectal temperature is measured again at various times after injection of the CB1R ligands.

[5] = S9 fraction stability assay; type: in vitro ADME; conditions: rat liver S9, 10 μM
Experimental: Compounds are incubated at 10 μM in rat (male Sprague Dawley) liver S9 at 37° C. Each compound is prepared in ethanol at a concentration of 1 mM. An assay mixture containing S9 (1 mg protein/mL final concentration) and an NADPH regenerating system (NADP [1 mM final], glucose 6-phosphate [5 mM final] and glucose 6-phosphate dehydrogenase [1 U/mL final]) in a buffer consisting of 50 mM KPO4 phosphate buffer, pH 7.4 with 3 mM MgCl2 is prepared and preincubated at 37° C. for 5 min. A 10 μL volume of the 1 mM solution is added to 990 μL of assay mixture in a glass test tube @ 37° C. to initiate the assay. Samples (50 μL) are removed at 0, 15, 30, 60 and 120 min and immediately extracted with 3 volumes (150 μL) of methanol, centrifuged to pellet protein and supernatants transferred to LC/MS vials for analysis.

[6] = Table 1, CP55940 radioligand, read-out: CB1_KI_CP
[7] = Table 1, CP55940 radioligand, read-out: CB2_KI_CP
[8] = read-out: CB1R binding affinity (Ki)

CB1R, sequence (P21554 whole entry): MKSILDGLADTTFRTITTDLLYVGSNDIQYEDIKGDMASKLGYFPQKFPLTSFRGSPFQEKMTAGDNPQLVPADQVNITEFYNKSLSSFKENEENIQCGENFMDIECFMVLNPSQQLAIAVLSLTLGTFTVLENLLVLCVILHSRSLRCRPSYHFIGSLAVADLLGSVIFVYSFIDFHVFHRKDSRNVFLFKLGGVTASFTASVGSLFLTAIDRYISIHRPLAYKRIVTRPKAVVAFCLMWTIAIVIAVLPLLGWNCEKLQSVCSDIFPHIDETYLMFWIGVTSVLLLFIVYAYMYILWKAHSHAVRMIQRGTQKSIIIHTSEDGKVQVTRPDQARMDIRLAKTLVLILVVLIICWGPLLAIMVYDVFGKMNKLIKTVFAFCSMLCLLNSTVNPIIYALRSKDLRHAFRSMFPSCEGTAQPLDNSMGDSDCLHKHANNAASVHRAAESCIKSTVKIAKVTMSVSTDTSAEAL
human CB1R (hCB1R), sequence (P21554 whole entry): as above
CB2R, sequence (P34972 whole entry): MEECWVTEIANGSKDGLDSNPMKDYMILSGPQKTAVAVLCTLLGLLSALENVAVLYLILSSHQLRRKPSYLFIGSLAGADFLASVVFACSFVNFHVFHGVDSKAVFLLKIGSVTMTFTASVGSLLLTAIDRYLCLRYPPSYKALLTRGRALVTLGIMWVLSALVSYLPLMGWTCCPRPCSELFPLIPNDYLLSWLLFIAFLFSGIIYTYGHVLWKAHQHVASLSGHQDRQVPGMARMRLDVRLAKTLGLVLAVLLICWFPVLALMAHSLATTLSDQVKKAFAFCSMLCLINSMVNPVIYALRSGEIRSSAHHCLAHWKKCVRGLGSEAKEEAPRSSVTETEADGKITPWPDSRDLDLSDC

Molecule | Ki (CB1R; [6]) [nM] | Ki (CB2R; [7]) [nM] | SNE Neuropath Assay-% return to pre-drug (0.3 mg/kg) contralateal threshold at 2-3 h [1] [%] | Ki (CB2R) [nM] | Plasma % remaining @ xy min (Plasma stability assay; 60 min) | S9% remaining @ xy min ([5]; 60 min) | also measured
4-{2-[(1E)-2-[(4- methoxy- naphthalen-1- yl)methylidene]- 1H-inden-3- yl]ethyl} morpholine [Compound 10] |  |  |  |  |  |  | effect on contralateral hindpaw withdrawal thresholds [1]: Neither ENMI nor 13339-135-25 had any significant effect
CCc1ccc(/C=C2\C=C(CCN3CCOCC3)c3ccccc32)c2ccccc12 [Compound 8, 4-{2-[(1E)-1-[(4-ethylnaphthalen-1-yl)methylidene]-1H-inden-3-yl]ethyl} morpholine] | 0.86 | 0.79 |  |  |  |  | Ki (CB1R): 1 nM; Emax (human CB1R (hCB1R)): 121%
C1=C(CCN2CCOCC2)c2ccccc2/C1=C/c1cccc2ccccc12 [Compound 11, 4-{2-[(1E)-1-(naphthalen-1-ylmethylidene)-1H-inden-3-yl]ethyl} morpholine] |  | 5.62 | 37.8 |  |  |  | effect in the rotarod assay (rats [2]; 0.3 mg/kg, intraperitoneal): complete lack of effects; Rotarod % change from pre-drug (0.3 mg/kg) at 2-3 hr (rats [2]): 0%; effect in the catalepsy assay (rats [3]; 0.3 mg/kg, intraperitoneal): complete lack of effects; Catalepsy % change from pre-drug (0.3 mg/kg) at 1-3 hrs (rats [3]): 0%; Ki (CB1R; [8]): 4.69 nM; Emax (human CB1R (hCB1R)): 103%; Plasma % remaining @ xy min (Plasma stability assay; 30 min): 95 @ 30%; Hypothermia % change from predrug (0.3 mg/kg) at 2-3 hr (rats [4]): 0%; S9% remaining @ xy min ([5]; 30 min): 35 @ 30%; effect on SNE-induced mechanical allodynia (ipsilateral hindpaw withdrawal thresholds) [1]: anti-allodynic effects; effect on contralateral hindpaw withdrawal thresholds [1]: Neither ENMI nor 13339-135-25 had any significant effect
CCCCCn1cc(C(=O)c2ccc(C(=O)OC)c3ccccc23)c2ccccc21 [Compound 54, methyl 4-(1-pentyl-1H-indole-3-carbonyl) naphthalene-1-carboxylate] |  |  | 0 | 73.4 |  |  | Ki (CB1R; [8]): 20 nM; Plasma % remaining @ xy min (Plasma stability assay; 30 min): 9.6 @ 30%; S9% remaining @ xy min ([5]; 30 min): 2.62 @ 30%; S9% remaining @ xy min ([5]; 30 min, listed as 4-carbomethoxy ester): 3%
COC(=O)c1ccc(C(=O)c2cn(CCN3CCOCC3)c3ccccc23)c2ccccc12 [Compound 56, methyl 4-{1-[2-(morpholin-4-yl)ethyl]-1H-indole-3-carbonyl} naphthalene-1-carboxylate] | 52.4 |  |  | 61.4 | 0 @ 60% | 0 @ 60% | 
CCCCCn1cc(C(=O)c2ccc(C(=O)CC)c3ccccc23)c2ccccc21 [Compound 61, 1-[4-(1-pentyl-1H-indole-3-carbonyl)naphthalen-1-yl]propan-1-one] | 5.71 |  |  | 32.7 | 75 @ 60% | 3 @ 60% | 
CCCCCn1cc(C(=O)c2cccc3ccccc23)c2c(F)cccc21 [Compound 62, 4-fluoro-3-(naphthalene-1-carbonyl)-1-pentyl-1H-indole] | 6.5 | 35.6 |  |  | 69 @ 60% | 5 @ 60% | 
CCCCCn1cc(C(=O)c2cccc3ccccc23)c2cc(F)ccc21 [Compound 63, 5-fluoro-3-(naphthalene-1-carbonyl)-1-pentyl-1H-indole] | 9.85 | 65 |  |  | 99 @ 60% | 13 @ 60% | 
CCCCCn1cc(C(=O)c2cccc3ccccc23)c2ccc(F)cc21 [Compound 64, 6-fluoro-3-(naphthalene-1-carbonyl)-1-pentyl-1H-indole] | 2.35 | 16.4 | 54.4 |  |  |  | effect on SNE-induced mechanical allodynia (ipsilateral hindpaw withdrawal thresholds) [1]: anti-allodynic effects
CCCCCn1cc(C(=O)c2cccc3ccccc23)c2cccc(F)c21 [Compound 65, 7-fluoro-3-(naphthalene-1-carbonyl)-1-pentyl-1H-indole] | 3.62 | 2.7 | 18.6 |  | 97 @ 60% | 50% | Rotarod % change from pre-drug (0.3 mg/kg) at 2-3 hr (rats [2]): 0%; Catalepsy % change from pre-drug (0.3 mg/kg) at 1-3 hrs (rats [3]): 0%; Emax (human CB1R (hCB1R)): 79%; Hypothermia % change from predrug (0.3 mg/kg) at 2-3 hr (rats [4]): 0%; S9% remaining @ xy min ([5]; 30 min): ~58%; S9% remaining @ xy min ([5]; 120 min): 36%
CCCc1ccc(C(=O)c2cn(CCCCCF)c3cccc(F)c23)c2ccccc12 [Compound 67, 4-fluoro-1-(5-fluoropentyl)-3-(4-propyl-naphthalene-1-carbonyl)-1H-indole] | 2.55 |  |  | 3.61 | 95 @ 60% | 6 @ 60% | 
Cc1c(C(=O)NN2CCCCC2)nn(-c2ccc(Cl)cc2Cl)c1-c1ccc(Cl)cc1 [SR141617A, rimonabant, reference compound] |  |  |  |  |  |  | effect of pretreatment with the CBR blocker on the anti-allodynic effect of PrNMI [1]: completely blocked
SR144528 [reference compound] |  |  |  |  |  |  | effect of pretreatment with the CBR blocker on the anti-allodynic effect of PrNMI [1]: little effect
